From PubChem BioAssay (NCI) come the findings set out here.

Among the test systems are HS 578T breast; MDA-MB-435; OVCAR-4 ovarian; OVCAR-8 ovarian; SK-MEL-2 melanoma; SNB-75 CNS; T-47D breast; HCC-2998 colon.
Test in all cases: growth of human tumour cells (NCI), 48 h

The structures appear in SMILES notation.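 How tested: cells in 96-well plates exposed to compound for 48 hours at five concentrations. Here, GI50 denotes the concentration required for 50% inhibition of growth. Definition used: TGI = concentration required for complete inhibition of growth.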

On to `O=C(O)c1nc2nc(Cl)c(Cl)nc2[nH]1`, for which the TGI with HS 578T breast, in the test on MDA-MB-435, in the test on OVCAR-4 ovarian, in the test on OVCAR-8 ovarian, in the test with SK-MEL-2 melanoma and with SNB-75 CNS was greater than 100 µM in each case. In the test with T-47D breast, this molecule showed a TGI greater than 100 µM.
For the molecule `COc1cccc(-c2nc(-c3ccc(NC(=O)OC(C)C)cc3)[nH]c2-c2ccnc(Br)c2)c1`, the GI50 in the test with HCC-2998 colon is 2.71 µM; in the test on HS 578T breast, 0.308 µM; in the test with MDA-MB-435, 3.11 µM; with OVCAR-4 ovarian, 3.09 µM; with OVCAR-8 ovarian it was 3.12 µM; with SK-MEL-2 melanoma it was 2.33 µM. Also, the GI50 in the test with SNB-75 CNS was 0.567 µM; in the test on T-47D breast it was 2.08 µM. The TGI in the test on HCC-2998 colon is greater than 100 µM; in the test with HS 578T breast it was 1.69 µM; with MDA-MB-435 it was greater than 100 µM; in the test with OVCAR-4 ovarian, greater than 100 µM; with OVCAR-8 ovarian, greater than 100 µM; in the test on SK-MEL-2 melanoma, 7.03 µM. Moreover, the results for the TGI with SNB-75 CNS and in the test with T-47D breast were greater than 100 µM and 7.64 µM, respectively.
Consider `O=[N+]([O-])c1ccc(Cl)cc1N/N=C/c1ccnc2ccccc12`, for which the TGI in the test on HCC-2998 colon, with HS 578T breast, in the test with MDA-MB-435, with OVCAR-4 ovarian, in the test with OVCAR-8 ovarian and in the test with SNB-75 CNS was greater than 100 µM in each case. The TGI with T-47D breast is greater than 100 µM.
For `Nc1n[nH]c2cc(F)c([C@@H]3Nc4ccc5[nH]ncc5c4[C@H]4C5CCC(C5)[C@@H]34)cc12` (stereo partly specified), the GI50 with HCC-2998 colon is 0.177 µM; in the test with HS 578T breast, 0.173 µM; in the test with MDA-MB-435, 0.0854 µM; in the test on OVCAR-4 ovarian, 0.327 µM; in the test with OVCAR-8 ovarian it was 0.193 µM; in the test on SK-MEL-2 melanoma it was 0.798 µM. The GI50 in the test on SNB-75 CNS is 0.0988 µM; with T-47D breast, 9.96 µM. Moreover, the TGI with HCC-2998 colon is 1.93 µM; in the test on HS 578T breast it was 11.6 µM; with MDA-MB-435 it was 0.306 µM; in the test with OVCAR-4 ovarian, greater than 50 µM; in the test on OVCAR-8 ovarian it was greater than 30.6 µM; in the test on SK-MEL-2 melanoma, 20.1 µM. For the same molecule, the TGI with SNB-75 CNS was 1.12 µM; with T-47D breast, greater than 50 µM.
Take `COc1cc(-c2ccc3cc(OC)c(OC)c(OC)c3c2)cc(OC)c1OC`: the GI50 in the test on HCC-2998 colon was greater than 100 µM; in the test on HS 578T breast, 15.4 µM; in the test on MDA-MB-435, 2.8 µM; in the test on OVCAR-4 ovarian it was greater than 100 µM; with OVCAR-8 ovarian, greater than 100 µM; with SK-MEL-2 melanoma, 16.6 µM. Also, the TGI in the test on HCC-2998 colon, with HS 578T breast, with MDA-MB-435, with OVCAR-4 ovarian, with OVCAR-8 ovarian and in the test with SK-MEL-2 melanoma was greater than 100 µM throughout.
As to `Oc1[nH]c2ccccc2c1N=Nc1nc(-c2ccc(Br)cc2)cs1`, the TGI in the test with HCC-2998 colon was greater than 100 µM; in the test on HS 578T breast, 65 µM; with MDA-MB-435, greater than 100 µM; in the test on OVCAR-4 ovarian it was 38.9 µM; with OVCAR-8 ovarian, 35.8 µM; with SK-MEL-2 melanoma, greater than 100 µM. The molecule also showed a TGI with SNB-75 CNS of 46.6 µM.
Consider `CCOC(=S)SCC(=O)O`, for which the TGI in the test with HS 578T breast, in the test on MDA-MB-435, with OVCAR-4 ovarian, with OVCAR-8 ovarian, with SK-MEL-2 melanoma and in the test with SNB-75 CNS was greater than 100 µM in each case. Also, the TGI with T-47D breast is greater than 100 µM.
As to `NC(=O)C(=Cn1c(=S)[nH]c2ccc([N+](=O)[O-])cc21)C(N)=O`, the TGI with HCC-2998 colon, in the test on MDA-MB-435, with OVCAR-4 ovarian, with OVCAR-8 ovarian, in the test with SK-MEL-2 melanoma and in the test on SNB-75 CNS was greater than 100 µM in each case. In the test with T-47D breast, the TGI was greater than 100 µM.
With `COc1ccc(-c2cn[nH]c2-c2cc(OC)c(OC)c(OC)c2)cc1`, the GI50 in the test with HCC-2998 colon was 0.0432 µM; in the test with HS 578T breast it was 0.0408 µM; in the test on OVCAR-4 ovarian, 0.511 µM; in the test on OVCAR-8 ovarian, 0.05 µM; in the test on SK-MEL-2 melanoma, 0.0317 µM; with SNB-75 CNS, 0.022 µM. Besides, the TGI in the test with HCC-2998 colon turned out to be 15 µM; in the test on HS 578T breast, 22.5 µM; in the test on OVCAR-4 ovarian, 46.9 µM; in the test with OVCAR-8 ovarian, 38.1 µM; in the test on SK-MEL-2 melanoma, 21.5 µM; in the test with SNB-75 CNS, 33.6 µM.
Consider `CCCOc1cc2ccccc2cc1C(=O)Nc1nc(N)c2c(ccc3nccc32)[nH]1`, for which the GI50 in the test on HCC-2998 colon is 0.22 µM; with MDA-MB-435, 0.0133 µM; with OVCAR-4 ovarian it was 1.55 µM; in the test with OVCAR-8 ovarian, 0.203 µM; with SK-MEL-2 melanoma, 0.0368 µM; in the test with T-47D breast, 0.499 µM. The TGI in the test with HCC-2998 colon came to 1.86 µM; in the test with MDA-MB-435 it was 0.0432 µM; in the test on OVCAR-4 ovarian, 4.37 µM; with OVCAR-8 ovarian, 1.69 µM; in the test with SK-MEL-2 melanoma, 1.32 µM; in the test on T-47D breast, 3.17 µM.
`COc1cccc(C2SC(N)=Nc3c2c(C)nn3C(=O)c2ccccc2O)c1` (stereo unspecified): the TGI is greater than 10 µM in the test on HCC-2998 colon; greater than 10 µM in the test on MDA-MB-435; greater than 8.45 µM with OVCAR-4 ovarian; greater than 10 µM in the test with OVCAR-8 ovarian; greater than 10 µM with SK-MEL-2 melanoma; greater than 10 µM in the test with SNB-75 CNS. The TGI with T-47D breast was greater than 10 µM.
On to `CC(C)=CCC(O)C1=CC(=O)c2c(O)ccc(O)c2C1=O` (stereo unspecified), for which the TGI with HCC-2998 colon amounted to 3.68 µM; in the test with HS 578T breast, 6.2 µM; in the test with MDA-MB-435 it was 2.82 µM; in the test with OVCAR-4 ovarian, 4.84 µM; in the test with OVCAR-8 ovarian, 3.35 µM; in the test with SK-MEL-2 melanoma, 3.83 µM. In the test with SNB-75 CNS, the TGI was found to be 11.1 µM.
As for `CC1SC(c2ccc(F)cc2)N(NC(=O)C(O)c2ccccc2)C1=O` (stereo unspecified), the GI50 in the test with HCC-2998 colon, in the test with HS 578T breast, in the test on MDA-MB-435, with OVCAR-4 ovarian, with OVCAR-8 ovarian and in the test on SK-MEL-2 melanoma was greater than 100 µM in each case. The GI50 in the test with SNB-75 CNS is greater than 100 µM. The TGI in the test on HCC-2998 colon, in the test on HS 578T breast, in the test on MDA-MB-435, in the test on OVCAR-4 ovarian, in the test on OVCAR-8 ovarian and in the test with SK-MEL-2 melanoma was greater than 100 µM throughout. Moreover, in the test on SNB-75 CNS, the TGI is greater than 100 µM.
